Measurements as given in patent US20070021509A1, “Phosphate transport inhibitors” (priority 2001, published 2007).

Tested on: phosphate uptake by rabbit intestinal Brush Border Membrane Vesicles (BBMV)
Test: 33PO4 uptake in rabbit intestinal BBMV (HTS), phosphate transporter inhibition in vitro
Type: biochemical
Conditions: for IC50: Table 2, phosphate uptake, read-out: IC50; for % Inhib. At 100 μM: Table 3, 100 μM compound
Description: The following example outlines the procedures required for in vitro measurement of the inhibition of phosphate uptake by rabbit intestinal Brush Border Membrane Vesicles (BBMV).
Rabbit Intestinal Brush Border Membrane Vesicles (BBMV) were isolated from mucosal scrapings of the upper small intestine (duodenum) of male New Zealand White rabbits. The scrapings were divided into 2 g aliquots in cryopreservation vials, frozen in liquid nitrogen, and stored at −80° C.
The following procedure was performed for each 2 g sample of BBMV mucosal scraping. Buffer volumes and container sizes were adjusted appropriately for the number of 2 g samples used. The entire preparation was performed on ice, unless otherwise stated.
Mucosal scrapings (2 g per tube) were thawed in a 37° C. water bath for 3 minutes and then placed on ice. The scrapings were suspended with a total of 7.5 ml of 300 MET, and transferred to a 250 mL Corning tube on ice. To the suspension was added 30 mL cold (4° C.) deionized water (dH20). The suspension was homogenized with a tissue homogenizer (Polytron) on high speed for 2 minutes. A stir bar and MgCl2 (81.3 mg) was added. The suspension was mixed well by inverting the closed tube. The suspension was stirred on ice, ensuring that a good vortex is achieved with the stir bar, for 40 minutes. The suspension was transferred to a chilled centrifuge tube and spun at 4000×g for 15 minutes. The supernatant was transferred to a new chilled centrifuge tube and spun at 32000×g for 30 minutes. The supernatant was discarded and the pellet was re-suspended with 34 mL cold 60 MET. The suspension was homogenized with a Dounce homogenizer with 8 strokes. The suspension was transferred to a fresh 250 mL Corning tube. A stir bar and 69.1 mg MgCl2 were added. The suspension was stirred well on ice for 10 minutes. The suspension was transferred to a chilled centrifuge tube and spun at 4000×g for 15 minutes. The supernatant was transferred to a new chilled centrifuge tube and spun at 32000×g for 30 minutes. The supernatant was discarded. At this stage, the preparation could be continued or this pellet (P4) could be frozen in liquid nitrogen and stored at −80° C. When needed, this pellet could be allowed to thaw at room temperature for 5 minutes. Continuing the preparation, the pellet was re-suspended with 34 mL cold 280 MH. The suspension was homogenized in a Dounce homogenize with 8 strokes. The suspension was transferred to a new chilled centrifuge tube and spun at 32000×g for 30 minutes. The supernatant was discarded. To the pellet was added 500 μL 280 MH and the pellet was re-suspended very carefully with a 1 mL tuberculin syringe with a 25-gauge needle with care not to create bubbles. Once the entire pellet was suspended, the suspension was transferred to a chilled 1.5 mL microfuge tube. The suspension was evenly dispersed by bringing the suspension up into the syringe through the 25-gauge needle, and back out again 8 times with care not to create bubbles. The total protein concentration was determined by performing a Bradford Protein Assay. Using that value, the BBMV were diluted with 280 MH to reach approximately 0.5-2.0 mg/mL. The solution was used as soon as possible for uptake studies.
The following experiment was performed using a Beckman Multimek 96-tip robotic pipettor. The following outlines the preparation required to screen one 96-well plate of compounds. However, multiple plates could be screened in one experiment.
To the “Uptake Buffers” was added ^33PO4 to reach 200,000 CPM/19 μL. The buffer solutions were stored at room temperature. The following control solutions were prepared and placed into appropriate wells of a polypropylene, 96-well V-bottom plate (“Hot Stock Plate”):
a. Maximum activity (MAX)−Na Uptake buffer+^33PO4 at 200,000 CPM/19 μL
b. Midline activity (MID)−MAX+100 μM KH2PO4, pH 7.4
c. Minimum activity (MIN)− K Uptake buffer+^33PO4 at 200,000 CPM/19 μL

Structure (SMILES)	IC50 [µM]	% Inhib. At 100 μM [%]
COc1ccc(S(=O)(=O)Nc2ccc(Br)cc2C(=O)Nc2cccc(Br)c2)cc1[N+](=O)[O-] [Compound 103]	51 to 100	–
COc1ccc(S(=O)(=O)Nc2ccc(Br)cc2C(=O)Nc2ccc(Cl)cc2Cl)cc1[N+](=O)[O-] [Compound 104]	51 to 100	–
COc1ccc(S(=O)(=O)Nc2ccc(Br)cc2C(=O)Nc2ccccc2Br)cc1[N+](=O)[O-] [Compound 105]	51 to 100	–
COc1ccccc1NC(=O)c1cc(Br)ccc1NS(=O)(=O)c1ccc(OC)c([N+](=O)[O-])c1 [Compound 106]	101 to 500	–
COc1ccc(S(=O)(=O)Nc2ccc(Br)cc2C(=O)Nc2ccccc2C(=O)O)cc1[N+](=O)[O-] [Compound 107]	101 to 500	–
COc1ccc(S(=O)(=O)Nc2ccc(Br)cc2C(=O)Nc2ccccc2C)cc1[N+](=O)[O-] [Compound 108]	101 to 500	–
O=C(Nc1ccc(Cl)c(Cl)c1)c1cc(Br)ccc1NS(=O)(=O)c1ccc(Cl)c([N+](=O)[O-])c1 [Compound 110]	< 50	–
O=C(Nc1cc(Cl)ccc1Cl)c1cc(Br)ccc1NS(=O)(=O)c1ccc(Cl)c([N+](=O)[O-])c1 [Compound 111]	< 50	–
O=C(Nc1cc(Cl)ccc1Cl)c1cc(Br)ccc1NS(=O)(=O)c1ccc(Cl)c([N+](=O)[O-])c1 [Compound 112]	< 50	–
O=C(Nc1ccc(Cl)c(Cl)c1)c1cc(Br)ccc1NS(=O)(=O)c1ccc(Cl)c([N+](=O)[O-])c1 [Compound 113]	51 to 100	–
O=C(Nc1ccccc1Br)c1cc(Br)ccc1NS(=O)(=O)c1ccc(Cl)c([N+](=O)[O-])c1 [Compound 114]	51 to 100	–
O=C(Nc1cc(Cl)ccc1Cl)c1cc(Br)ccc1NS(=O)(=O)c1ccc(Cl)c([N+](=O)[O-])c1 [Compound 115]	51 to 100	–
O=C(Nc1cccc(Br)c1)c1cc(Br)ccc1NS(=O)(=O)c1ccc(Cl)c([N+](=O)[O-])c1 [Compound 116]	101 to 500	–
COc1ccccc1NC(=O)c1cc(Br)ccc1NS(=O)(=O)c1ccc(Cl)c([N+](=O)[O-])c1 [Compound 117]	101 to 500	–
O=C(Nc1ccccc1Cl)c1cc(Br)ccc1NS(=O)(=O)c1ccc(Cl)c([N+](=O)[O-])c1 [Compound 118]	101 to 500	–
NCCCCCCNC(=O)c1cc(Br)ccc1NS(=O)(=O)c1ccc(Cl)c([N+](=O)[O-])c1 [Compound 119]	1000 to 1500	–
O=C(Nc1ccc(Cl)cc1Cl)c1cc(Br)ccc1NS(=O)(=O)c1ccc(Cl)c([N+](=O)[O-])c1 [Compound 120]	> 1500	–
Cc1ccccc1NC(=O)c1cc(Br)ccc1NS(=O)(=O)c1ccc(Cl)c([N+](=O)[O-])c1 [Compound 121]	> 1500	–
Cc1c(Cl)cccc1NC(=O)c1cc(Br)ccc1NS(=O)(=O)c1ccc(Cl)c([N+](=O)[O-])c1 [Compound 122]	> 1500	–
O=C(Nc1cccc(Cl)c1)c1cc(Br)ccc1NS(=O)(=O)c1ccc(Cl)c([N+](=O)[O-])c1 [Compound 123]	> 1500	–

Structure (SMILES)	IC50 [µM]	% Inhib. At 100 μM [%]
O=C(Nc1ccccc1F)c1cc(Br)ccc1NS(=O)(=O)c1ccc(Cl)c([N+](=O)[O-])c1 [Compound 124]	> 1500	–
O=C(Nc1ccc(Cl)c(Cl)c1)c1cc(Br)ccc1NS(=O)(=O)c1cccc([N+](=O)[O-])c1 [Compound 125]	101 to 500	–
O=S(=O)(Nc1ccc(I)cc1F)c1ccc(OC(F)(F)F)cc1 [Compound 126]	–	103
O=S(=O)(Nc1cc(Cl)c(Cl)cc1Cl)c1cc(C(F)(F)F)cc(C(F)(F)F)c1 [Compound 127]	–	101
CSc1ccc(NS(=O)(=O)c2ccc(OC(F)(F)F)cc2)cc1 [Compound 128]	–	88
O=S(=O)(Nc1ccc(Oc2ccccc2)cc1)c1ccc(OC(F)(F)F)cc1 [Compound 129]	–	84
CN(C)c1ccc(NS(=O)(=O)c2cc(C(F)(F)F)cc(C(F)(F)F)c2)cc1 [Compound 130]	–	81
O=S(=O)(Nc1ccc(C(F)(F)F)cc1)c1ccc(NS(=O)(=O)c2ccc(C(F)(F)F)cc2)cc1 [Compound 131]	–	80
O=S(=O)(Nc1cccc(Cl)c1)c1ccc(OC(F)(F)F)cc1 [Compound 132]	–	79
O=S(=O)(NCc1ccccc1Cl)c1ccc(OC(F)(F)F)cc1 [Compound 133]	–	77
O=S(=O)(Nc1ccccc1-n1cccc1)c1ccc(OC(F)(F)F)cc1 [Compound 134]	–	76
O=S(=O)(c1ccccc1)n1ccc2ccccc21 [Compound 135]	–	76
Nc1cc(Br)ccc1N(c1ccc(OC(F)(F)F)cc1)S(=O)(=O)c1ccc(OC(F)(F)F)cc1 [Compound 136]	–	76
CCOC(=O)c1cc2cccc(NS(=O)(=O)c3ccc(OC(F)(F)F)cc3)c2[nH]1 [Compound 137]	–	74
CC(C)(C)c1ccc(NS(=O)(=O)c2ccc(OC(F)(F)F)cc2)cc1 [Compound 138]	–	71
O=S(=O)(c1ccc(Cl)cc1)N1CCCc2ccccc21 [Compound 139]	–	70
O=S(=O)(c1ccc(Cl)cc1)N1CCc2ccccc21 [Compound 140]	–	69
Cc1ccc2c(c1)CCCN2S(=O)(=O)c1ccc(C(C)(C)C)cc1 [Compound 141]	–	68
Cc1ccc(NS(=O)(=O)c2ccc(OC(F)(F)F)cc2)cc1 [Compound 142]	–	67
O=S(=O)(c1ccccc1)n1nnc2ccccc21 [Compound 143]	–	64

Structure (SMILES)	IC50 [µM]	% Inhib. At 100 μM [%]
Cc1cc(C)c(S(=O)(=O)n2cc(/C=C/C(=O)O)c3ccccc32)c(C)c1 [Compound 144]	–	64
O=S(=O)(Nc1cc(C(F)(F)F)c(Cl)cc1Cl)c1cc(C(F)(F)F)cc(C(F)(F)F)c1 [Compound 146]	–	62
O=[N+]([O-])c1cc(Br)ccc1NS(=O)(=O)c1ccc(OC(F)(F)F)cc1 [Compound 147]	–	61
O=c1sc2ccccc2n1S(=O)(=O)c1ccccc1 [Compound 148]	–	60
O=S(=O)(Nc1ccccc1Br)c1ccc(OC(F)(F)F)cc1 [Compound 149]	–	57
Nc1cc(Br)ccc1NS(=O)(=O)c1ccc(OC(F)(F)F)cc1 [Compound 150]	–	57
O=S(=O)(Nc1c(F)cc(Br)cc1F)c1ccc(OC(F)(F)F)cc1 [Compound 151]	–	54
Cc1ccc(S(=O)(=O)N2CCC(=O)c3ccc(Cl)cc32)cc1 [Compound 152]	–	54
O=S(=O)(NCc1ccc(F)cc1F)c1ccc(OC(F)(F)F)cc1 [Compound 153]	–	53
Cc1ccc(S(=O)(=O)n2cc(/C=C/C(=O)O)c3ccccc32)cc1 [Compound 154]	–	52
O=S(=O)(c1ccc2ccccc2c1)N1CCc2ccccc21 [Compound 155]	–	51
O=[N+]([O-])c1ccc(NS(=O)(=O)c2ccc(OC(F)(F)F)cc2)cc1 [Compound 156]	–	46
C[S+]([O-])c1ccc2c(c1)CCN2S(=O)(=O)c1cccc(C(F)(F)F)c1 (stereo not shown) [Compound 157]	–	37
CC(=O)Nc1ccc(S(=O)(=O)N2CCCc3ccccc32)cc1 [Compound 158]	–	37
O=S(=O)(Nc1ccccc1)c1ccccc1 [Compound 159]	–	36
O=[N+]([O-])c1cc(Br)ccc1N(c1ccc(OC(F)(F)F)cc1)S(=O)(=O)c1ccc(OC(F)(F)F)cc1 [Compound 160]	–	34
O=C1OCc2ccc(NS(=O)(=O)c3ccc(C(F)(F)F)cc3)cc21 [Compound 161]	–	29
O=S(=O)(Nc1ccc(F)cc1F)c1cc(C(F)(F)F)cc(C(F)(F)F)c1 [Compound 162]	–	29
